Assay results published in US10815235B2, “Polycyclic compounds and uses thereof” (priority 2017, dated 2020).
Read-outs that look alike come from different tables or passages of the source.

Target: T1, Serotonin 5-HT1F receptor (Homo sapiens, UniProt P30939)
T1 sequence (P30939 1-366): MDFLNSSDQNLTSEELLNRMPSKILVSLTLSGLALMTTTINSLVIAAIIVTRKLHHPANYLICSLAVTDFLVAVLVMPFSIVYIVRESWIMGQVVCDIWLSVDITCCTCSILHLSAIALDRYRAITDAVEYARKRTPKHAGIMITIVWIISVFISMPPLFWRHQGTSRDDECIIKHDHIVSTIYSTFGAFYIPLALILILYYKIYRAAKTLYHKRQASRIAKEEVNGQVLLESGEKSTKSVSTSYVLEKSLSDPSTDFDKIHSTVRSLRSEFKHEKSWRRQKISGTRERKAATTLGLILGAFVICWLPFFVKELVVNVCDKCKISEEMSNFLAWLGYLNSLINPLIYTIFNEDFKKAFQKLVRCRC
Experiment: GTPγS Scintillation Proximity Assay, agonist and antagonist mode
Type: biochemical
Method: Antagonist and agonist activities were determined using a GTPγS Scintillation Proximity Assay. The assay was prepared as follows: Membrane extracts were prepared from recombinant human Dopamine D2L, D3; Serotonin 5-HT1A, 5-HT1B, 5-HT1D and 5-HT1F receptors.
Samples were tested by proprietary biological assays by Ogeda S. A., Euroscreen FAST Business Unit, Rue Adrienne Bolland, 47 B-6041 Gosselies, Belgium. Each protein assay was prepared using the following conditions.
5-HT1F • Assay buffer: 20 mM HEPES pH 7.4; 100 mM NaCl, 10 μg/ml saponin, 1 mM MgCl2; • Membranes: recombinant 5-HT1F membrane extracts thawed on ice and diluted in assay buffer to give 0.5 mg/ml (5 μg/well) and kept on ice; • GDP: diluted in assay buffer to give a 3 μM final assay concentration; • Beads: PVT-WGA (Perkin Elmer, RPNQ001), diluted in assay buffer at 50 mg/ml (0.5 mg/well); and • GTPγ^35S: (PerkinElmer NEG030X), diluted in assay buffer to give 0.1 nM.
Membranes were mixed with GDP (volume:volume 1:1) and incubated for at least 15 min on ice. […]
The plates were covered with a top seal, mixed on an orbital shaker for 2 min, and then incubated for 1 hour at room temperature. Then the plates were centrifuged for 10 min at 2000 rpm, incubated at room temperature 1 hour and counted for 1 min/well with a PerkinElmer TopCount reader. […]

**Q.** Which EC50 (agonist mode, bound stated, read-out: EC50 value for the Serotonin 5-HT1F receptor) does the source give for `CC[C@@H](CO)NC(=O)[C@@H]1C[C@@H]2c3cccc4c3c(c(C3CC3)n4C)C[C@H]2N(C)C1` [Compound D13H, (6aR,9R,10aR)-5-cyclopropyl-N—((S)-1-hydroxybutan-2-yl)-4,7-dimethyl-4,6,6a,7,8,9,10,10a-octahydroindolo[4,3-fg]quinoline-9-carboxamide] here?
**A.** < 1000 nM

**Q.** And the EC50 (membrane extracts, read-out: Agonist Activity (EC50), 5-HT1F)?
**A.** 260 nM
